According to patent US20070224674A1, “Selective Enrichiment of Microorganisms for Desired Metabolic Properties” (COMMONWEALTH SCIENTIFIC AND INDUSTRIAL RESEARCH OR, priority 2003, published 2007):

Experiments:
[1] = tested on: P. putida; assay: Growth on glucose and benzyl alcohol in defined medium, batch culture; type: cell-based, Pseudomonas putida F1
Protocol: (§1) For these control experiments a steady state culture of an Escherichia coli BL21DE3 which was supplied by Novagen (Novagen Inc., Madison, Wis., USA) and was expected to grow on glucose only was used. The culture was established using 5 ml of an E. coli culture taken from a 100 ml shake flask culture which had been grown for 17 hours shaking at 200 rpm and 30° C. in defined medium with 1.0 g l^−1 glucose as the carbon source. Although the feed contained another substrate (benzyl alcohol), no growth on this substrate was expected because this microbial population was known to be unable to use this carbon source for growth. When steady state had been established, 10 mL of a 100 mL shake flask culture of Pseudomonas putida F1 was added. The P. putida F1 culture had been grown at 30° C. for 17 hours, with shaking at 200 rpm, in defined medium with 1.0 g l^−1 glucose as the carbon source. The P. putida F1 was supplied by the American Type Culture Collection (ATCC) and was expected to grow on benzyl alcohol and/or glucose. The OUR was expected to change as a result of the increased microbial activity after the addition of P. putida.
(§2) The success of this control experiment was dependent upon the ability of E. coli to grow on glucose in DM and grow in DM in the presence of benzyl alcohol (i.e. benzyl alcohol is not toxic to E. coli). Also of key importance was the inability of E. coli to grow on benzyl alcohol. […] Although P. putida is well known for its ability to grow on a wide range of aromatic substrates (Wackett, & Hershberger, 2001), growth on benzyl alcohol has not been reported. The optical density at inoculation was calculated (based upon the optical density on the inocula) as 0.021 (E. coli) and 0.026 (P. putida). The cultures were incubated shaking at 200 rpm and 30° C. The optical density was measured at 600 nm after incubation for 23.5 and 75 hours.

[2] = tested on: E. coli; assay: as above; type: cell-based, Escherichia coli BL21DE3
Protocol: as §1, §2

[3] = tested on: E. coli and P. putida continuous culture; assay: Continuous culture population shift, residual substrate by gas chromatography; type: cell-based, Escherichia coli BL21DE3, Pseudomonas putida F1; conditions: when BOD stabilised after addition of P. putida; feed 1.0 g l^−1 benzyl alcohol and 0.5 g l^−1 glucose, 30 ml h^−1
Protocol: Based on the BOD it was clear that steady state had been attained (it is generally assumed that steady state has been established after turnover of at least three vessel volumes which, in this example would occur after 37.5 hours). After 125.7 hours (equivalent to 10 vessel volumes) of continuous operation, P. putida was added to the culture. Initially, there was no change in the BOD so to ensure P. putida was not being washed out of the vessel the feed flow rate was reduced from 60 ml h^−1 to 30 ml h^−1. […] This observation was confirmed by measuring the residual benzyl alcohol in the culture supernatant, which had started to decrease. As the P. putida population developed the BOD increased, peaking initially at nearly 1400 mg l^−1 before declining to 1050 mg l^−1 after which a second peak in the BOD was observed. […] After the second BOD peak, the BOD stabilised at 1040 mg l^−1 which was the expected BOD for a feed containing 0.5 g l^−1 glucose and 1.0 g l^−1 benzyl alcohol (see calculation below).
The feed consisting of DM containing 0.5 g l^−1 glucose and 1.0 g l^−1 benzyl alcohol was fed into a vessel at 30° C. and pH 7. The feed flow rate was initially 60 ml h^−1. […] At the same time that the BOD stabilised the measured residual benzyl alcohol concentration was zero. […]

[4] = tested on: Isolate 2A; assay: 1-methyl-2-pyrrolidinone degradation in liquid batch culture; type: cell-based; conditions: for Residual 1-methyl-2-pyrrolidinone concentration: 1.0 g l^−1 added
Protocol: (§3) The ability of the pure isolates to grow on 1-methyl-2-pyrrolidinone as the sole source of carbon in liquid culture was also evaluated (Table 3). The cultures were grown in 50 ml screw-capped plastic tubes that contained 10 ml of defined medium and 1.0 g l^−1 1-methyl-2-pyrrolidinone. To ensure each culture was inoculated with a consistent number of cells, 10 ml of medium was seeded with 100 μl of a single colony that had been resuspended in 1 ml of DM. The cultures were incubated at 30° C. shaking at 190 rpm. A single 10 ml culture was harvested by centrifugation at each time point and the supernatant kept for determination of the 1-methyl-2-pyrrolidinone concentration. The 1-methyl-2-pyrrolidinone concentrations were estimated using gas chromatography

[5] = tested on: Isolate 2B; assay: as above; type: cell-based; conditions: for Residual 1-methyl-2-pyrrolidinone concentration: 1.0 g l^−1 added
Protocol: as §3

[6] = stated in words; cited from earlier work
[7] = tested on: microorganisms from activated sludge; assay: Enrichment of activated sludge on 1-methyl-2-pyrrolidinone, growth from BOD; type: cell-based; conditions: 30° C., pH 7.0
Protocol: Fresh activated sludge sourced from a wastewater treatment facility was used as the source of microorganisms for enrichment of 1-methyl-2-pyrrolidinone-utilising microbes. […] The enrichment process was performed at 30° C. and pH 7.0 (the pH was maintained at 7.0 by the automatic addition of a potassium hydroxide or hydrochloric acid solution as the alkali and acid, respectively). The feed flow rate was 60 ml h^−1.
After the addition of the activated sludge to a vessel the BOD was high (greater than 500 mg l^−1). […] After 2 ml of 1-methyl-2-pyrrolidinone was added to the vessel (Arrow A; FIG. 8) a rapid rise in BOD was observed indicating exponential growth (FIG. 8). […] Growth is exponential between 1220 and 1460 minutes and μmax can therefore be calculated as 0.52 h^−1, which corresponds to a doubling time of 1.34 hours. The rapid decline in BOD (Arrow B, FIG. 8) was due to the oxygen consumption of the microbial population being greater than the amount of oxygen supplied to the culture.

[8] = tested on: Isolate 1C; assay: Dodecane degradation in liquid batch culture; type: cell-based; conditions: for Residual dodecane concentration: 0.75 g l^−1 added
Protocol: (§4) The ability of the pure isolates to grow on dodecane as the sole source of carbon in liquid culture was also evaluated and is shown in Table 5. The cultures were grown in 50 ml screw-capped plastic tubes that contained 10 ml of defined medium and 0.75 g l^−1 dodecane. To ensure each culture was inoculated with a consistent number of cells, 10 ml of medium was inoculated with 100 μl of a single colony that had been resuspended in 1 ml of DM. The cultures were incubated at 30° C. shaking at 190 rpm. Residual dodecane was extracted by the addition of 20 ml of hexane to a single 10 ml culture at each time point. The tube was shaken vigorously for one minute and after phase separation, the upper layer was kept for determination of the dodecane concentration. The dodecane concentrations were estimated using gas chromatography.

[9] = tested on: Isolate 1B; assay: Dodecane degradation in liquid batch culture; type: cell-based; conditions: for Residual dodecane concentration: 0.75 g l^−1 added
Protocol: as §4

[10] = tested on: Isolate 1D; assay: Dodecane degradation in liquid batch culture; type: cell-based; conditions: for Residual dodecane concentration: 0.75 g l^−1 added
Protocol: as §4

[11] = tested on: 1,3-propanediol-degrading microbial population (activated sludge); assay: Enrichment of activated sludge on 1,3-propanediol, growth from BOD; type: cell-based
Protocol: Isolation of 1,3-propanediol-degrading microorganisms was used to test the feedback loop between feed flow rate and OUR. The feed medium was a defined medium designated 461S (Appendix I) which contained 1.0 g l^−1 1,3-propanediol and the initial flow rate was 43.5 ml h^−1. The operating temperature was 30° C. and pH 7.0. The medium was inoculated with ˜700 ml of activated sludge. The feed flow rate was increased by 20 ml h^−1 if the BOD remained constant for four vessel volumes. After an initial peak in the BOD, which was due to 1,3-propanediol being in excess, the BOD remained constant over a range of flow rates. […] This observation was expected because the inferred μmax of the population from the initial peak in BOD at the start of the experiment was ˜0.25 h^−1 (a doubling time of 2.8 hours). […] could be achieved with any microbial population that is established in the culture because there is a good probability that mutants which can grow at a higher rate will be selected at high feed flow rates.

[12] = benzyl alcohol 1.0 g l^−1 only carbon source, 23.5 hours
[13] = benzyl alcohol 1.0 g l^−1 only carbon source, 75 hours
[14] = benzyl alcohol 1.0 g l^−1 with glucose 0.1 g l^−1, 23.5 hours
[15] = benzyl alcohol 1.0 g l^−1 with glucose 0.1 g l^−1, 75 hours
[16] = batch culture, over a 168 hours period
[17] = glucose 0.1 g l^−1 only carbon source, 23.5 hours incubation, 30° C.
[18] = glucose 0.1 g l^−1 only carbon source, 75 hours incubation, 30° C.

OCc1ccccc1 [Benzyl alcohol, benzyl alcohol]
Optical density at 600 nm [1, 12]: 0.021
Optical density at 600 nm [1, 13]: 0.417
Optical density at 600 nm [1, 14]: 0.042
Optical density at 600 nm [1, 15]: 0.353
Optical density at 600 nm [2, 12]: 0.027
Optical density at 600 nm [2, 13]: 0.024
Optical density at 600 nm [2, 14]: 0.102
Optical density at 600 nm [2, 15]: 0.097
Residual benzyl alcohol concentration [3]: zero

CN1CCCC1=O [1-methyl-2-pyrrolidinone]
Residual 1-methyl-2-pyrrolidinone concentration ([4]; 24 h after inoculation): NDa (Not detected (limit of detection · 20 mg l^−1))
Residual 1-methyl-2-pyrrolidinone concentration ([4]; 48 h after inoculation): ND (Not detected (limit of detection · 20 mg l^−1))
Residual 1-methyl-2-pyrrolidinone concentration ([4]; 72 h after inoculation): ND (Not detected (limit of detection · 20 mg l^−1))
Residual 1-methyl-2-pyrrolidinone concentration ([4]; 96 h after inoculation): ND (Not detected (limit of detection · 20 mg l^−1))
Residual 1-methyl-2-pyrrolidinone concentration ([4]; 168 h after inoculation): ND (Not detected (limit of detection · 20 mg l^−1))
Time to completely degrade 1.0 g l^−1 1-methyl-2-pyrrolidinone ([4]; batch culture): ≤ 24 h
Residual 1-methyl-2-pyrrolidinone concentration ([5]; 24 h after inoculation): ND (Not detected (limit of detection · 20 mg l^−1))
Residual 1-methyl-2-pyrrolidinone concentration ([5]; 48 h after inoculation): ND (Not detected (limit of detection · 20 mg l^−1))
Residual 1-methyl-2-pyrrolidinone concentration ([5]; 72 h after inoculation): ND (Not detected (limit of detection · 20 mg l^−1))
Residual 1-methyl-2-pyrrolidinone concentration ([5]; 96 h after inoculation): ND (Not detected (limit of detection · 20 mg l^−1))
Residual 1-methyl-2-pyrrolidinone concentration ([5]; 168 h after inoculation): ND (Not detected (limit of detection · 20 mg l^−1))
Time to completely degrade 1.0 g l^−1 1-methyl-2-pyrrolidinone ([5]; batch culture): ≤ 24 h
Solubility in water [6]: soluble in water
μmax of the population growing on the substrate ([7]; calculated from exponential BOD rise between 1220 and 1460 minutes): 0.52 h⁻¹
Doubling time ([7]; corresponds to μmax): 1.34 h

CCCCCCCCCCCC [dodecane]
Residual dodecane concentration ([8]; 24 h after inoculation): 630 mg/L
Residual dodecane concentration ([8]; 48 h after inoculation): 620 mg/L
Residual dodecane concentration ([8]; 72 h after inoculation): 440 mg/L
Residual dodecane concentration ([8]; 96 h after inoculation): 440 mg/L
Residual dodecane concentration ([8]; 168 h after inoculation): 280 mg/L
Dodecane added to the culture that was used [8, 16]: 50 to 60%
Residual dodecane concentration ([9]; 24 h after inoculation): 920 mg/L
Residual dodecane concentration ([9]; 48 h after inoculation): 160 mg/L
Residual dodecane concentration ([9]; 72 h after inoculation): 420 mg/L
Residual dodecane concentration ([9]; 96 h after inoculation): 270 mg/L
Residual dodecane concentration ([9]; 168 h after inoculation): 290 mg/L
Dodecane added to the culture that was used [9, 16]: 50 to 60%
Residual dodecane concentration ([10]; 24 h after inoculation): 1080 mg/L
Residual dodecane concentration ([10]; 48 h after inoculation): 920 mg/L
Residual dodecane concentration ([10]; 72 h after inoculation): 740 mg/L
Residual dodecane concentration ([10]; 96 h after inoculation): 410 mg/L
Residual dodecane concentration ([10]; 168 h after inoculation): 310 mg/L
Dodecane added to the culture that was used [10, 16]: 50 to 60%
Solubility in water [6]: practically insoluble in water

O=C[C@H](O)[C@@H](O)[C@H](O)[C@H](O)CO [Glucose, glucose]
Optical density at 600 nm [1, 17]: 0.170
Optical density at 600 nm [1, 18]: 0.138
Optical density at 600 nm [2, 17]: 0.116
Optical density at 600 nm [2, 18]: 0.102

OCCCO [1,3-propanediol]
Doubling time ([11]; corresponds to inferred μmax): 2.8 h
Inferred μmax of the population ([11]; from the initial peak in BOD, 1.0 g l^−1 in feed, 30° C., pH 7.0): ~0.25 h⁻¹
